Values of other authors in patent US20190231802A1, “CHEMOTHERAPEUTIC-RELEASING IMPLANTABLE STICK, METHODS OF MANUFACTURE AND PRECURSOR MATERIALS” (The Johns Hopkins University, priority 2016, published 2019).

System: selected cancer cell lines
Details: compared to paclitaxel, topotecan, CPT-11, docetaxel, carboplatin and temozolomide; previous study [8]

COc1cccc2c1C(=O)c1c(O)c3c(c(O)c1C2=O)C[C@@](O)(C(=O)CO)C[C@@H]3O[C@H]1C[C@H](N)[C@H](O)[C@H](C)O1 [Doxorubicin]
IC50: relatively low IC50
